Our source for the IC50 values is patent publication US12227482B2, “Compounds and compositions for the treatment of cancer” (The Regents of the University of California, priority 2016, dated 2025).

Each structure is given as a SMILES string.

One may read the IC50 as the concentration that inhibits the measured activity by half.

What all share (assay type): cell-based
In one assay the test system is A549 cells. The experiment in a line: Cell viability (CellTiter-Glo ATP content) in A549 cells. The note with it: Homo sapiens, A549, 72 h, 72 hours treatment, cell survival by CellTiter-Glo, 2% fetal bovine serum. The essentials:
(§1)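 Cells plated at 5,000 per well in antibiotic-free RPMI with 2% FBS, treated next day in triplicate with increasing compound doses (final DMSO 0.5%) for 72 hours. Viability read as ATP content by CellTiter-Glo luminescence; percent survival relative to vehicle control set as 100%.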
Background: Cellular ATP, detected with luciferase, serves as a proxy for viable cell number.

A further assay has as its system LOX cells. Kind of assay: Cell viability (CellTiter-Glo ATP content) in LOX cells. The note with it: LOX, 72 h, 72 hours treatment, cell survival by CellTiter-Glo, 2% fetal bovine serum. The method, boiled down: as §1
Another assay deals with MelJuSo cells. Kind of assay: Cell viability (CellTiter-Glo ATP content) in MelJuSo cells. The note with it: Homo sapiens, MEL-JUSO, 72 hours treatment, cell survival by CellTiter-Glo, 2% fetal bovine serum. The method, boiled down:
as §1

For the compound `CNC(=O)CNC(=O)C1(C)C(c2cccs2)C(c2ccc(F)cc2)=NN1c1ccc(F)cc1F` (stereo not drawn) [Compound 123, 1-(2,4-difluorophenyl)-3-(4-fluorophenyl)-5-methyl-N-(2-(methylamino)-2-oxoethyl)-4-(thiophen-2-yl)-4,5-dihydro-1H-pyrazole-5-carboxamide], the IC50 in the assay with A549 cells was greater than 2 µM; in the assay with LOX cells, greater than 2 µM; in the assay with MelJuSo cells, 1 to 2 µM.
Turning to `CCCCC1C(c2ccc(F)cc2)=NN(c2ccccc2)C1(C)C(=O)NCc1ccc(O)cc1` (stereo not drawn) [Compound 36, 4-butyl-3-(4-fluorophenyl)-N-(4-hydroxybenzyl)-5-methyl-1-phenyl-4,5-dihydro-1H-pyrazole-5-carboxamide], the figures for the IC50 in the assay on A549 cells, in the assay with LOX cells and with MelJuSo cells were greater than 2 µM, greater than 2 µM and 1 to 2 µM, respectively.
As for `COCCNC(=O)C1(C)C(c2ccco2)C(c2ccc(F)cc2)=NN1c1ccc(F)cc1F` (stereo not drawn) [Compound 92, 1-(2,4-difluorophenyl)-3-(4-fluorophenyl)-4-(furan-2-yl)-N-(2-methoxyethyl)-5-methyl-4,5-dihydro-1H-pyrazole-5-carboxamide], the IC50 with A549 cells, in the assay with LOX cells and in the assay on MelJuSo cells was less than 0.25 µM each time.
Take `CCCCC1C(c2ccc(F)cc2)=NN(c2ccccc2)C1(C)C(=O)NCCC(C)N(C)C` (stereo not drawn) [Compound 75, 4-butyl-N-(3-(dimethylamino)butyl)-3-(4-fluorophenyl)-5-methyl-1-phenyl-4,5-dihydro-1H-pyrazole-5-carboxamide]: the IC50 was 0.5 to 1 µM in the assay on A549 cells, greater than 2 µM in the assay with LOX cells and greater than 2 µM in the assay on MelJuSo cells.
For the compound `CCCCC1C(c2ccc(F)cc2)=NN(c2ccc(F)cc2F)C1(C)C(=O)NCCCC(C)(C)CO` (stereo not drawn) [Compound 3, 4-butyl-1-(2,4-difluorophenyl)-3-(4-fluorophenyl)-N-(5-hydroxy-4,4-dimethylpentyl)-5-methyl-4,5-dihydro-1H-pyrazole-5-carboxamide], the IC50 with A549 cells, with LOX cells and with MelJuSo cells was 0.5 to 1 µM throughout.
Turning to `CCCCC1C(c2ccc(F)cc2)=NN(c2ccccc2)C1(C)C(=O)NCC1CCCCO1` (stereo not drawn) [Compound 68, 4-butyl-3-(4-fluorophenyl)-5-methyl-1-phenyl-N-((tetrahydro-2H-pyran-2-yl)methyl)-4,5-dihydro-1H-pyrazole-5-carboxamide], the IC50 in the assay on A549 cells was greater than 2 µM; with LOX cells, 1 to 2 µM; in the assay with MelJuSo cells it was 0.5 to 1 µM.
Consider `CCCCC1C(c2ccc(F)cc2)=NN(c2ccccc2)C1(C)C(=O)NCC1CC1` (stereo not drawn) [Compound 73, 4-butyl-N-(cyclopropylmethyl)-3-(4-fluorophenyl)-5-methyl-1-phenyl-4,5-dihydro-1H-pyrazole-5-carboxamide], for which the figures for the IC50 in the assay on A549 cells, in the assay with LOX cells and in the assay on MelJuSo cells were greater than 2 µM, 1 to 2 µM and 1 to 2 µM, respectively.
For the compound `CCCCC1C(c2ccc(F)cc2)=NN(c2ccc(F)cc2F)C1(C)C(=O)N(C)CCCOC` (stereo not drawn) [Compound 26, 4-butyl-1-(2,4-difluorophenyl)-3-(4-fluorophenyl)-N-(3-methoxypropyl)-N,5-dimethyl-4,5-dihydro-1H-pyrazole-5-carboxamide], the IC50 with A549 cells, in the assay with LOX cells and with MelJuSo cells was greater than 2 µM in each case.
